Results as given in patent US4225586A, “Antibiotic SB-72310” (Takeda Chemical Industries, Ltd., priority 1978, dated 1980).
Structures can show the parent of a compound that is named as a salt.

How the values were obtained:
[1] = Basicity, neutrality or acidity; type: physicochemical
gram-negative bacteria = test: Antibacterial activity against gram-negative bacteria; type: cell-based; conditions: paper disk method, Table 2
Method: (§1) The biological characteristics of SB-72310 are as follows.
(§2) Antimicrobial spectra of SB-72310(Inhibition diameter (mm)
(§3) by paper disk method) (25 μl of test solution of 10 mg/ml
(§4) is absorbed in paper disks of 8 mm diameter)
(§5) Medium = Trypticasesoy-broth-agar

Solubility in solvents = type: physicochemical
gram-positive bacteria = test: Antibacterial activity against gram-positive bacteria; type: cell-based; conditions: paper disk method, Table 2
Method: as §1, §2, §3, §4, §5

Bacillus cereus IFO 3466 = test: Antimicrobial spectrum, paper disk method; type: cell-based; conditions: IFO3466, 25 μl of 10 mg/ml in 8 mm paper disks, Trypticasesoy-broth-agar, read-out: Inhibition diameter
Method: as §1, §2, §3, §4, §5

[2] = tested on: Proteus mirabilis IFO 3849; test: Antimicrobial spectrum, paper disk method; type: cell-based; conditions: IFO3849, 25 μl of 10 mg/ml in 8 mm paper disks, Trypticasesoy-broth-agar, read-out: Inhibition diameter
Method: as §1, §2, §3, §4, §5

[3] = tested on: Pseudomonas fluorescens IFO 3081; test: Antimicrobial spectrum, paper disk method; type: cell-based; conditions: IFO3081, 25 μl of 10 mg/ml in 8 mm paper disks, Trypticasesoy-broth-agar, read-out: Inhibition diameter
Method: as §1, §2, §3, §4, §5

[4] = tested on: Alcaligenes faecalis IFO 13111; test: Antimicrobial spectrum, paper disk method; type: cell-based; conditions: IFO13111, 25 μl of 10 mg/ml in 8 mm paper disks, Trypticasesoy-broth-agar, read-out: Inhibition diameter
Method: as §1, §2, §3, §4, §5

[5] = tested on: Staphylococcus aureus FDA 209P; test: Antimicrobial spectrum, paper disk method; type: cell-based; conditions: FDA209P, 25 μl of 10 mg/ml in 8 mm paper disks, Trypticasesoy-broth-agar, read-out: Inhibition diameter
Method: as §1, §2, §3, §4, §5

[6] = tested on: Escherichia coli NIHJ JC-2; test: Antimicrobial spectrum, paper disk method; type: cell-based; conditions: NIHJJC2, 25 μl of 10 mg/ml in 8 mm paper disks, Trypticasesoy-broth-agar, read-out: Inhibition diameter
Method: as §1, §2, §3, §4, §5

[7] = tested on: Bacillus subtilis IFO 3513; test: Antimicrobial spectrum, paper disk method; type: cell-based; conditions: IFO3513, 25 μl of 10 mg/ml in 8 mm paper disks, Trypticasesoy-broth-agar, read-out: Inhibition diameter
Method: as §1, §2, §3, §4, §5

[8] = tested on: Serratia marcescens IFO 12648; test: Antimicrobial spectrum, paper disk method; type: cell-based; conditions: IFO12648, 25 μl of 10 mg/ml in 8 mm paper disks, Trypticasesoy-broth-agar, read-out: Inhibition diameter
Method: as §1, §2, §3, §4, §5

[9] = tested on: Comamonas terrigena IFD 12685; test: Antimicrobial spectrum, paper disk method; type: cell-based; conditions: IFD12685, 25 μl of 10 mg/ml in 8 mm paper disks, Trypticasesoy-broth-agar, read-out: Inhibition diameter
Method: as §1, §2, §3, §4, §5

Sarcina lutea IFO 3232 = test: Antimicrobial spectrum, paper disk method; type: cell-based; conditions: Micrococcus luteus, IFO3232, 25 μl of 10 mg/ml in 8 mm paper disks, Trypticasesoy-broth-agar, read-out: Inhibition diameter
Method: as §1, §2, §3, §4, §5

[10] = tested on: Salmonella typhimurium IFO 12529; test: Antimicrobial spectrum, paper disk method; type: cell-based; conditions: Salmonella enterica, 25 μl of 10 mg/ml in 8 mm paper disks, Trypticasesoy-broth-agar, read-out: Inhibition diameter
Method: as §1, §2, §3, §4, §5

[11] = tested on: Proteus vulgaris IFO 3045; test: Antimicrobial spectrum, paper disk method; type: cell-based; conditions: IFO3045, 25 μl of 10 mg/ml in 8 mm paper disks, Trypticasesoy-broth-agar, read-out: Inhibition diameter
Method: as §1, §2, §3, §4, §5

[12] = tested on: Klebsiella pneumoniae IFO 3318; test: Antimicrobial spectrum, paper disk method; type: cell-based; conditions: IFO3318, 25 μl of 10 mg/ml in 8 mm paper disks, Trypticasesoy-broth-agar, read-out: Inhibition diameter
Method: as §1, §2, §3, §4, §5

[13] = Stability in aqueous solution; type: physicochemical
Method: 12. Stability: Stable in aqueous solution in the range of pH 3 to 7 at 60° C. for 10 minute heating; unstable over pH 8.5.
10. Stability: Stable in aqueous solution in the range of pH 3 to 7 at 60° C. for 10 minute heating; unstable over pH 8.5.

mice = test: Acute toxicity, intravenous; type: in vivo
Method: The acute toxicity of the sodium salt of Antibiotic SB-72310 is low, with no deaths being encountered when 500 mg/kg of the salt was administered to mice by the intravenous route.

[14] = aqueous solution, pH 3 to 7, 60° C., 10 minute heating

Compound | Solubility in solvents (Solubility in solvents; acetone) | Solubility in solvents (Solubility in solvents; benzene) | Solubility in solvents (Solubility in solvents; chloroform) | Solubility in solvents (Solubility in solvents; diethyl ether) | Solubility in solvents (Solubility in solvents; dimethylsulfoxide) | Solubility in solvents (Solubility in solvents; ethanol) | Solubility in solvents (Solubility in solvents; ethyl acetate) | Solubility in solvents (Solubility in solvents; hexane) | Solubility in solvents (Solubility in solvents; methanol) | Solubility in solvents (Solubility in solvents; petroleum ether) | Solubility in solvents (Solubility in solvents; pyridine) | Solubility in solvents (Solubility in solvents; water) | Stability [13, 14] | Stability ([13]; over pH 8.5) | also measured
COC1(NC(=O)C(C)NC(=O)CCC(N)C(=O)O)CN(S(=O)(=O)O)C1=O (stereo not shown) [SB-72310] | sparingly soluble | Insoluble | Insoluble | Insoluble | soluble | sparingly soluble | Insoluble | Insoluble | soluble | Insoluble | sparingly soluble | readily soluble | Stable | unstable | Basicity, neutrality or acidity [1]: Acid; Activity against gram-negative bacteria (gram-negative bacteria): active; Activity against gram-positive bacteria (gram-positive bacteria): active; zone of inhibition at 10000 µg/mL (Bacillus cereus IFO 3466): 14.5 mm; zone of inhibition at 10000 µg/mL [2]: 19 mm; zone of inhibition at 10000 µg/mL [3]: 12.5 mm; zone of inhibition at 10000 µg/mL [4]: 23 mm; zone of inhibition at 10000 µg/mL [5]: 18.5 mm; zone of inhibition at 10000 µg/mL [6]: 14.5 mm; zone of inhibition at 10000 µg/mL [7]: 22 mm; zone of inhibition at 10000 µg/mL [8]: 17 mm; zone of inhibition at 10000 µg/mL [9]: 25 mm; zone of inhibition at 10000 µg/mL (Sarcina lutea IFO 3232): 23 mm; zone of inhibition at 10000 µg/mL [10]: 18.5 mm; zone of inhibition at 10000 µg/mL [11]: 18 mm; zone of inhibition at 10000 µg/mL [12]: 12.5 mm
COC1(NC(=O)C(C)NC(=O)CCC(N)C(=O)O)CN(S(=O)(=O)O)C1=O (stereo not shown) [SB-72310 sodium salt] | Insoluble | Insoluble | Insoluble | Insoluble | soluble | sparingly soluble | Insoluble | Insoluble | sparingly soluble | Insoluble | sparingly soluble | readily soluble | Stable | unstable | Acute toxicity (mice): low; Deaths (mice; 500 mg/kg): no deaths
